# Data: article PMC5159281 (Bioorganic & medicinal chemistry letters, 2016)
# What was measured:
# HepG2 cells = assay: cells; conditions: Homo sapiens, HepG2, read-out: HepG2 EC50
# [1] = tested on: P. falciparum blood stage; conditions: result in words
# recombinant PfPKG = recombinant PfPKG (Plasmodium falciparum, UniProt Q8I719); assay: biochemical
# PfCDPK1 = PfCDPK1 (Plasmodium falciparum, UniProt P62344); assay: biochemical
# CRL-8155 cells = assay: cells; conditions: Homo sapiens, CRL8155, read-out: CRL8155 EC50
# recombinant PfCDPK4 = recombinant PfCDPK4 (Plasmodium falciparum, UniProt Q8IBS5); assay: biochemical
# Chain of recombinant PfCDPK4 (Q8IBS5 whole entry): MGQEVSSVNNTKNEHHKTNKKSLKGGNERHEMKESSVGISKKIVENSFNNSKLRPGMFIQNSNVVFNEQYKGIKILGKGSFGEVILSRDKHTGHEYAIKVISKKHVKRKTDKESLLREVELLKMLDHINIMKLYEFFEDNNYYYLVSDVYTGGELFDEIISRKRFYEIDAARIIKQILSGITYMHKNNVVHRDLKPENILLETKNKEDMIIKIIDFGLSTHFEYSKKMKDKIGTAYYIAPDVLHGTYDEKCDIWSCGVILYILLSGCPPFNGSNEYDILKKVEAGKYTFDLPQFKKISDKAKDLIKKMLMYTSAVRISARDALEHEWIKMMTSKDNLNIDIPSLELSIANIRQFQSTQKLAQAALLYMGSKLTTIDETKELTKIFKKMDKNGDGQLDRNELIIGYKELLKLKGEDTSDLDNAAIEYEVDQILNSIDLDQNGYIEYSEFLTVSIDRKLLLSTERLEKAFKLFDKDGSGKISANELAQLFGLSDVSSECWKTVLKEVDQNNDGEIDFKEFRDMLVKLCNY
# hERG = hERG (Homo sapiens, UniProt Q12809); conditions: cited from earlier work
# Chain of hERG (Q12809 whole entry): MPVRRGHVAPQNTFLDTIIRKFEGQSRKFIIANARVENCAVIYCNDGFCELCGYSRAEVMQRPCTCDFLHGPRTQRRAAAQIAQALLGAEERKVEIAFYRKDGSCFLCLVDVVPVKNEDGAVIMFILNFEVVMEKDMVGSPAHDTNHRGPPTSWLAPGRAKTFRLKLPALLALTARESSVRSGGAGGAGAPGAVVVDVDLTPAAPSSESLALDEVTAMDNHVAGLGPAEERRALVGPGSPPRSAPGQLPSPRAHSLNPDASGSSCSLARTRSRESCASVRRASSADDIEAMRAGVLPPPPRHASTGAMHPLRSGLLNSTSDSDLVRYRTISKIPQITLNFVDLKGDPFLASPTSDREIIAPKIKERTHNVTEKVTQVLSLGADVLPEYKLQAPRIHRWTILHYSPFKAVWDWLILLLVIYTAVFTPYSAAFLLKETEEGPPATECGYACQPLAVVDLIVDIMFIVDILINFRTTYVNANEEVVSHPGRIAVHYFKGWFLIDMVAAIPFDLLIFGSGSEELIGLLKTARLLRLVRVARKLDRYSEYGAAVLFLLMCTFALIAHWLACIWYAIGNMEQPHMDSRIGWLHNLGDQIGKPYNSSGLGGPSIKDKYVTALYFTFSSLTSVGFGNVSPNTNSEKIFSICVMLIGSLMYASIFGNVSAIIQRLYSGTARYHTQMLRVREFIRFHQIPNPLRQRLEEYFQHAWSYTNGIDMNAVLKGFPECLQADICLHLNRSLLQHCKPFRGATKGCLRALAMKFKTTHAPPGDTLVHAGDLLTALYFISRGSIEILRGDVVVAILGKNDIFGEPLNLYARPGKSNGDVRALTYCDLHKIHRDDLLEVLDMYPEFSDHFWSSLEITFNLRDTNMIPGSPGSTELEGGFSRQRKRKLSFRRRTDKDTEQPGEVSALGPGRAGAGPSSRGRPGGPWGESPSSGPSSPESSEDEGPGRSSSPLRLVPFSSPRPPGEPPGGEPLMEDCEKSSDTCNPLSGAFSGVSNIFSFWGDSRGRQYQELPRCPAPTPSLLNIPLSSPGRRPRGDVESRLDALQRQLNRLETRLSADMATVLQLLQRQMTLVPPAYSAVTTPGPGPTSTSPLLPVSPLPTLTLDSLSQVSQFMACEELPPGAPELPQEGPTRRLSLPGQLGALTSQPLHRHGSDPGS
# [2] = cited from earlier work
# Chain of PfCDPK1 (P62344 whole entry): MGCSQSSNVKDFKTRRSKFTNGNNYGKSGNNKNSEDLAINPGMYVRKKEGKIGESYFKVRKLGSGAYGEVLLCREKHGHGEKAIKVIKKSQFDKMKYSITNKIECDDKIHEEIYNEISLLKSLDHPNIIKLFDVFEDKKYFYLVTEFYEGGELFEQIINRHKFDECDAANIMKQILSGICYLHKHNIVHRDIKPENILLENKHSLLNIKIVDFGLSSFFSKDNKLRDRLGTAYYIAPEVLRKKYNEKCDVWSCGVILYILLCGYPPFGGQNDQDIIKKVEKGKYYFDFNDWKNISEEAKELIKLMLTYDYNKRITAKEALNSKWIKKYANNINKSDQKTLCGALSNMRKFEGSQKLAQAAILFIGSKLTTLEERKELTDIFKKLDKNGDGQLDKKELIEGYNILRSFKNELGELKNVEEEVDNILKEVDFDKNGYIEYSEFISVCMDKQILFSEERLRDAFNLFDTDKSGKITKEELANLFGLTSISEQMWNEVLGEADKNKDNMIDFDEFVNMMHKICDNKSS
# Chain of recombinant PfPKG (Q8I719 whole entry): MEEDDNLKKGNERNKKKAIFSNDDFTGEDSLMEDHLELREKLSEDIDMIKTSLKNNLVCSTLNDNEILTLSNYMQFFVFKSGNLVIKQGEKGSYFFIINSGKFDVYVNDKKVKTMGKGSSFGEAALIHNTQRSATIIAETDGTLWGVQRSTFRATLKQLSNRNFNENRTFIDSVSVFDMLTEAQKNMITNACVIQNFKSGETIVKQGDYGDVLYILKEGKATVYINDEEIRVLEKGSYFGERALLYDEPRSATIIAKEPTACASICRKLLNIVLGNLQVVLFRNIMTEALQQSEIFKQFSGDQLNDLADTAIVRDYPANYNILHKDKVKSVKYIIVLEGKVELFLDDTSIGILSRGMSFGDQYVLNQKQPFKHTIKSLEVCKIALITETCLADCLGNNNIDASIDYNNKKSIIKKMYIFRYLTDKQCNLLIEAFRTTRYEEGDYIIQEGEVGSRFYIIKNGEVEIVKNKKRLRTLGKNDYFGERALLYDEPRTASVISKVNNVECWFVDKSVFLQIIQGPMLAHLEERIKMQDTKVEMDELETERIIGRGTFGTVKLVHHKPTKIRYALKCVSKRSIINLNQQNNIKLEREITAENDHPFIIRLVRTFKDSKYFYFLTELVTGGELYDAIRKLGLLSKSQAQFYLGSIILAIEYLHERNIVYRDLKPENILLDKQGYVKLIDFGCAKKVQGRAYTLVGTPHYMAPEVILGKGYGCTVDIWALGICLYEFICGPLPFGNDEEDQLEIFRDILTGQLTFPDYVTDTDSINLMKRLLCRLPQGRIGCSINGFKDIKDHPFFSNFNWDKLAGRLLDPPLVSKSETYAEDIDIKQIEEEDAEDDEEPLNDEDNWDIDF
EC50 (HepG2 cells) [µM],EC50 (CRL-8155 cells) [µM],SMILES,IC50 (PfCDPK1) [µM],further results
> 30,,CCOc1ccc2cc(-c3nn(C(C)(C)C)c(N)c3C(N)=O)cnc2c1 [Compound 6],,anti-erythrocytic stage inhibition [1]: some observable anti-erythrocytic stage inhibition
,,CCOc1ccc2cc(-c3nn(C(C)(C)C)c(N)c3C(N)=O)ccc2c1 [Compound 5],0.287,IC50 (recombinant PfPKG): 2.37 µM
> 30,> 30,COc1ccc2cc(-c3nn(C(C)(C)C)c(N)c3C(N)=O)cnc2c1 [Compound 4],,
> 30,> 30,CCOc1ccc2cc(-c3nn(CC(C)(C)CO)c(N)c3C(N)=O)cnc2c1 [Compound 17],,
> 30,> 30,CCOc1ccc2cc(-c3nn(C4CCCCC4)c(N)c3C(N)=O)ccc2n1 [Compound 26],,anti-erythrocytic stage inhibition [1]: some observable anti-erythrocytic stage inhibition
,,CCOc1ccc2cc(-c3nn(C4CCOC4)c(N)c3C(N)=O)ccc2n1 (centres unmarked) [Compound 25],0.468,IC50 (recombinant PfCDPK4): 0.103 µM
,,CC(C)n1nc(-c2ccc3nc(OC4CCC4)ccc3c2)c(C(N)=O)c1N [Compound 27],0.159,
,,CCOc1ccc2cc(-c3nn(CC4CCN(C)CC4)c4ncnc(N)c34)ccc2c1 [Compound 1294],,hERG inhibitory activity (hERG): hERG inhibitory activity at therapeutic concentrations; toxicity ([2]; initial mouse studies): low toxicity; oral availability ([2]; mouse): orally available
,,CC(C)(C)n1nc(-c2cnc3cc(OC4CC4)ccc3c2)c(C(N)=O)c1N [Compound 8],0.225,
> 30,> 30,CC(C)(C)n1nc(-c2ccc3cc(O)ccc3c2)c(C(N)=O)c1N [Compound 2],,anti-erythrocytic stage inhibition [1]: some observable anti-erythrocytic stage inhibition
> 30,> 30,CCOc1ccc2cc(-c3nn(C(C)C)c(N)c3C(N)=O)cnc2c1 [Compound 14],,
